From patent US20240374595A1, “SUBSTITUTED 1,1'-BIPHENYL COMPOUNDS, ANALOGUES THEREOF, AND METHODS USING SAME” (Arbutus Biopharma Corporation, priority 2018, published 2024)

Target: PD-L1 (Homo sapiens (Human), UniProt Q9NZQ7)
Assay: PD-L1 HTRF assay (PD-1/PD-L1 interaction)
Format: binding
Conditions: PD-L1 His 6 nM, PD-1 Fc 6 nM; inhibitors 3-fold diluted from 20 μM
Procedure: PD-L1 small molecule inhibitors were diluted by 3-fold starting from 20 μM and a final concentration of 0.001 μM and added to the well. PD-1 Fc protein was added at the final concentration of 6 nM. PD-L1 His protein, PD-L1 small molecule inhibitors, and PD1 Fc proteins were added to the well in this order, with each 5 μl volume, and were incubated for 15 minutes at room temperature. […] The plate was read using PerkinElmer Envision plate reader and data was analyzed by Prism 6 software.

PD-L1, sequence (Q9NZQ7 19-238): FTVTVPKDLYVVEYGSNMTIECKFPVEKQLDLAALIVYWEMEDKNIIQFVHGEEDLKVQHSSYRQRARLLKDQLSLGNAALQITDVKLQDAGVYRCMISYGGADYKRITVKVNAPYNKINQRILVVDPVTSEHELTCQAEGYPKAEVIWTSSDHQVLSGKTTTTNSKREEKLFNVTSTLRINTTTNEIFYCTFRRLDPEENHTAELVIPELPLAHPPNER

SMILES | IC50
Cc1c(COc2cc(OCc3cncc(C#N)c3)c(C3=NCC(O)CN3)cc2Cl)cccc1-c1cccc(COc2cc(OCc3cncc(C#N)c3)c(C3=NCC(O)CN3)cc2Cl)c1C (stereo not drawn) [Example 28, 5-[[4-chloro-5-[[3-[3-[[2-Chloro-5-[(5-cyano-3-pyridyl)methoxy]-4-(5-hydroxy-1,4,5,6-tetrahydropyrimidin-2-yl)phenoxy]methyl]-2-methyl-phenyl]-2-methyl-phenyl]methoxy]-2-(5-hydroxy-1,4,5,6-tetrahydropyrimidin-2-yl)phenoxy]methyl]pyridine-3-carbonitrile] | 6.7 nM
COc1cc(OCc2cccc(-c3cccc(COc4cc(OC)c(CN5CCCC[C@H]5C(=O)O)cc4Cl)c3C)c2C)c(Cl)cc1CO [Example 30, (2S)-1-[[5-chloro-4-[[3-[3-[[2-chloro-4-(hydroxymethyl)-5-methoxy-phenoxy]methyl]-2-methyl-phenyl]-2-methyl-phenyl]methoxy]-2-methoxy-phenyl]methyl]piperidine-2-carboxylic acid] | 4 nM
COc1cc(OCc2cccc(-c3cccc(COc4cc(OC)c(CNCCO)cc4Cl)c3C)c2C)c(Cl)cc1CNCCO [Example 31, 2,2′-((((((2,2′-Dimethyl-[1,1′-biphenyl]-3,3′-diyl)bis(methylene))bis(oxy))bis (5-chloro-2-methoxy-4,1-phenylene))bis(methylene))bis(azanediyl))bis(ethan-1-ol)] | 1 nM
Cc1c(NC(=O)c2ccc(CO)cn2)cccc1-c1cccc(NC(=O)c2ccc(CO)cn2)c1C [Example 32, 5-(Hydroxymethyl)-N-[3-[3-[[5-(hydroxymethyl)pyridine-2-carbonyl]amino]-2-methyl-phenyl]-2-methyl-phenyl]pyridine-2-carboxamide] | 3.2 nM
Cc1c(NC(=O)c2ccc(CNCCO)cn2)cccc1-c1cccc(OCCCN2CCC(O)CC2)c1C [Example 33, 5-[(2-hydroxyethylamino)methyl]-N-[3-[3-[3-(4-hydroxy-1-piperidyl)propoxy]-2-methyl-phenyl]-2-methyl-phenyl]pyridine-2-carboxamide] | 3.7 nM
Cc1c(NC(=O)c2ccc(CNCCO)cn2)cccc1-c1cccc(NC(=O)c2ccc(CNCCO)cn2)c1C [Example 34, 5-[(2-Hydroxyethylamino)methyl]-N-[3-[3-[[5-[(2-hydroxyethylamino)methyl]pyridine-2-carbonyl]amino]-2-methyl-phenyl]-2-methyl-phenyl]pyridine-2-carboxamide] | 1 nM
Cc1c(NC(=O)c2ccc(C3=NCCC(C(=O)O)N3)cn2)cccc1-c1cccc(NC(=O)c2ccc(C3=NCCC(C(=O)O)N3)cn2)c1C (stereo not drawn) [Example 35, 2-[6-[[3-[3-[[5-(4-Carboxy-1,4,5,6-tetrahydropyrimidin-2-yl)pyridine-2-carbonyl]amino]-2-methyl-phenyl]-2-methyl-phenyl]carbamoyl]-3-pyridyl]-1,4,5,6-tetrahydropyrimidine-4-carboxylic acid] | 0.3 nM
Cc1c(NC(=O)c2ccc(CNCCO)cn2)cccc1-c1cccc(NC(=O)c2ccc(CN3CC[C@@H](O)C3)cn2)c1C [Example 37, (R)-5-(((2-hydroxyethyl)amino)methyl)-N-(3′-(5-((3-hydroxypyrrolidin-1-yl)methyl)picolinamido)-2,2′-dimethyl-[1,1′-biphenyl]-3-yl)picolinamide] | 0.8 nM
Cc1c(NC(=O)c2ccc(CNCCO)cn2)cccc1-c1cccc(NC(=O)c2ccc(CN(C)CCO)cn2)c1C [Example 38, 5-(((2-hydroxyethyl)-(methyl)amino)methyl)-N-(3′-(5-(((2-hydroxyethyl)amino)methyl)picolinamido)-2,2′-dimethyl-[1,1′-biphenyl]-3-yl)picolinamide] | 0.9 nM
